Experimental data: patent US20080255111A1, “Tissue Factor Production Inhibitor” (SANKYO COMPANY LIMITED, priority 2004, published 2008)
Where two headings read alike, the source gives them in different places.

Tests used:
[1] = tested on: tissue factor mRNA in kidneys of LPS-dosed mice; assay: Assay of tissue factor mRNA using LPS-dosed mouse (kidney); type: in vivo; settings: male C57BL/6J mice, 10 mg/kg oral once a day for 7 days; LPS 4 mg/kg i.p., kidneys 6 hours later; PG/Tween only = 100
Procedure: Test compounds were dissolved in a solution comprising a 4:1 mixture of propylene glycol (Wako Pure Chemical Industries) and Tween 80 (Kao) (hereinafter PG/Tween) followed by oral administration by gavage for 7 days at 10 mg/kg once a day in the evening to male C57BL/6J mice (Charles River). LPS was administered intraperitoneally at 4 mg/kg at 9:00 AM on the day following the 7th day of administration of PG/Tween, after which the animals were laparotomized under ether anesthesia 6 hours later to excise the kidneys. RNA was extracted from the kidneys using Trizol reagent (Invitrogen). After carrying out a reverse transcription reaction on the resulting RNA using the First-Strand cDNA Synthesis Kit, the expressed amounts of tissue factor mRNA and cyclophilin mRNA were measured in the same manner as the aforementioned Test Example 1. The expressed amounts of tissue factor mRNA for the test compounds when administered at a concentration of 10 mg/kg based on a value of 100 for the expressed amount of tissue factor mRNA in a case of administration of PG/Tween only are shown in Table 8.

[2] = tested on: tissue factor mRNA in LPS-stimulated mouse peritoneal macrophages; assay: Assay of mouse peritoneal macrophage tissue factor mRNA; type: cell-based; settings: for mrna remaining at 1 µM: test compound 1 μM
Procedure: 3 ml of thioglycolate (Sigma Chemical) were administered into the abdominal cavity of male C57BL/6J mice (Charles River) followed 4 days later by intraperitoneal administration of 10 ml of phosphate-buffered saline (hereinafter PBS) containing heparin (Hishiyama Pharmaceutical) at a concentration of 5 U/ml and recovery of intraperitoneal macrophages using a syringe. After centrifuging the recovered macrophages at 1000 rpm and 4° C. for 5 minutes, the supernatant was discarded followed by suspending in RPMI 1640 medium (Gibco Laboratories) containing normal fetal bovine serum (hereinafter FBS) at a concentration of 10%. The macrophages were adjusted to a concentration of 4×10^6 cells/ml, disseminated in 1 ml aliquots in a 12-well plate, and cultured for 3 hours at 37° C. using a CO2 incubator. Subsequently, the cells were washed with PBS, and the medium was replaced with RPMI medium containing lipoprotein-deficient serum (hereinafter LPDS) (Sigma Chemical) at a concentration of 5%. Test compounds dissolved in dimethylsulfoxide (DMSO) at a concentration of 1 μM were added to make a final DMSO concentration of 0.1%, and after warming for 18 hours at 37° C., lipopolysaccharide (hereinafter LPS) (Sigma Chemical) was added to make a concentration of 100 ng/ml. The cells were recovered 6 hours later, RNA was extracted using the Rneasy Mini Kit (Qiagen), and after carrying out a reverse transcription reaction using the First-Strand cDNA Synthesis Kit (Amersham Biosciences), the expressed amounts of tissue factor mRNA and cyclophylin mRNA were measured by quantitative RT-PCR (TaqMan, Applied Biosystems 7700 Sequence Detector).
Quantitative RT-PCR for tissue factor was carried out using the aforementioned TF-1 and TF-2 as primers and TF-P as probes, while quantitative PCR for cyclophilin was carried out using the aforementioned Cyl-1 and Cyl-2 as primers and Cyl-P as probes. Both were carried out by warming for 2 minutes at 50° C. and then for 10 minutes at 95° C., followed by 40 warming cycles consisting of warming for 15 seconds at 95° C. and then for 1 minute at 60° C. The expressed amount of tissue factor mRNA was calculated as a relative value of the expressed amount of cyclophilin mRNA. The expressed amounts of tissue factor mRNA resulting from the test compounds at a concentration of 1 μM or 10 μM based on a value of 100 for the expressed amount of tissue factor mRNA in a case of treatment with DMSO at a concentration of […] are shown in Table 7.

[3] = 18 h, then LPS 100 ng/ml for 6 h, relative to cyclophilin mRNA, DMSO treatment = 100, read-out: Expressed Amount of Tissue Factor mRNA
[4] = test compound 10 μM, 18 h, then LPS 100 ng/ml for 6 h, relative to cyclophilin mRNA, DMSO treatment = 100, read-out: Expressed Amount of Tissue Factor mRNA

For `COc1cc2nc(Cc3ccccc3)n(-c3ccc(C(O)(C(F)(F)F)C(F)(F)F)cc3)c(=O)c2cc1OC` [Compound D, 2-Benzyl-6,7-dimethoxy-3-[4-[2,2,2-trifluoro-1-hydroxy-1-(trifluoromethyl)ethyl]phenyl]-4(3H)-quinazolinone], the “Expressed Amount of Tissue Factor mRNA” value [1] was 63.5 and the mrna remaining at 1 µM [2, 3] was 39%.

`CC(C)(C)OC(=O)c1c(COc2ccc(-c3ccc(CC(=O)O)cc3)cc2)ccc(C(F)(F)F)c1O` [Reference Example 13, (4′-{[2-(tert-Butoxycarbonyl)-3-hydroxy-4-(trifluoromethyl)benzyl]oxy}-1,1′-biphenyl-4-yl)acetic acid] showed a mrna remaining at 1 µM [2, 3] of 65.4%.

For `CN(c1ccc(OCc2ccc(C(F)(F)F)c(O)c2C(=O)OC(C)(C)C)cc1)S(C)(=O)=O` [Reference Example 6, tert-Butyl 2-hydroxy-6-({4-[methyl(methylsulfonyl)amino]phenoxy}methyl)-3-(trifluoromethyl)benzoate], the mrna remaining at 1 µM [2, 3] was 62.8%.

`O=C(O)Cc1cccc(OCCCN(Cc2cccc(C(F)(F)F)c2Cl)CC(c2ccccc2)c2ccccc2)c1` [Compound C, 2-(3-{3-[[2-Chloro-3-(trifluoromethyl)benzyl](2,2-diphenylethyl)amino]propoxy}-phenyl)acetic acid, reference compound] was tested, and the “Expressed Amount of Tissue Factor mRNA” value [1] was 54.1 and the mrna remaining at 1 µM [2, 3] was 68.8%.

`CC(C)(C)OC(=O)n1c(COc2ccc(-c3ccc(CC(=O)O)cc3)cc2)cc2ccc(F)cc21` [Reference Example 9, (4′-{[1-(tert-Butoxycarbonyl)-6-fluoro-1H-indol-2-yl]methoxy}-1,1′-biphenyl-4-yl)acetic acid] was tested, and the mrna remaining at 1 µM [2, 3] was 66%.

In the case of `CCc1ccc(COc2ccc(N(C)C(C)=O)cc2)c(C(=O)OC(C)(C)C)c1O` [Reference Example 7, tert-Butyl 6-({4-[acetyl(methyl)amino]phenoxy}methyl)-3-ethyl-2-hydroxybenzoate], the mrna remaining at 1 µM [2, 3] is reported as 68%.

Compound `CN(C)c1cc(CC(=O)O)ccc1-c1ccc(OCc2ccc(C(F)(F)F)c(O)c2C(=O)OC(C)(C)C)cc1` [Reference Example 31, [4′-{[2-(tert-Butoxycarbonyl)-3-hydroxy-4-(trifluoromethyl)benzyl]oxy}-2-(dimethylamino)-1,1′-biphenyl-4-yl]acetic acid] has a mrna remaining at 10 µM [2, 4] of 33.7%.

Compound `CC(C)(C)OC(=O)c1c(COc2ccc(-c3ccc(CC(=O)O)cc3)cc2)ccc(Cl)c1O` [Reference Example 20, (4′-{[2-(tert-Butoxycarbonyl)-4-chloro-3-hydroxybenzyl]oxy}-1,1′-biphenyl-4-yl)acetic acid] has a mrna remaining at 10 µM [2, 4] of 58.1%.

`COc1cc(CC(=O)O)ccc1-c1ccc(OCc2ccc(C(F)(F)F)c(O)c2C(=O)OC(C)(C)C)cc1` [Reference Example 25, (4′-{[2-(tert-Butoxycarbonyl)-3-hydroxy-4-(trifluoromethyl)benzyl]oxy}-2-methoxy-1,1′-biphenyl-4-yl)acetic acid] showed a mrna remaining at 1 µM [2, 3] of 64%.

Compound `C[C@H](CCC(=O)N(C)C)[C@H]1CCC2C3CC=C4C[C@@H](O)CC[C@]4(C)C3CC[C@@]21C` (stereo partly drawn) [Compound J, N,N-Dimethyl-3β-hydroxycholenamide, reference compound] has a mrna remaining at 10 µM ([2]; 6 h, read-out: Expressed Amount of Tissue Factor mRNA) of 39.3%.

`COc1cc2nc(Cc3ccsc3)n(-c3cc(C(O)(C(F)(F)F)C(F)(F)F)ccc3C)c(=O)c2cc1Cl` [Reference Example 1, 6-Chloro-7-methoxy-3-{2-methyl-5-[2,2,2-trifluoro-1-hydroxy-1-(trifluoromethyl)ethyl]phenyl}-2-(3-thienylmethyl)-4(3H)-quinazolinone] was tested, and the mrna remaining at 10 µM [2, 4] was 41.1%.

In the case of `CC(C)(C)OC(=O)n1c(COc2ccc(-c3ccc(CC(=O)O)cc3Cl)cc2)cc2ccc(F)cc21` [Reference Example 12, (4′-{[1-(tert-Butoxycarbonyl)-6-fluoro-1H-indol-2-yl]methoxy}-2-chloro-1,1′-biphenyl-4-yl)acetic acid], the mrna remaining at 1 µM [2, 3] is reported as 54.3%.

Compound `CC(C)(C)OC(=O)c1c(COc2ccc(-c3ccc(CC(=O)O)c(Cl)c3)cc2)ccc(C(F)(F)F)c1O` [Reference Example 14, (4′-{[2-(tert-Butoxycarbonyl)-3-hydroxy-4-(trifluoromethyl)benzyl]oxy}-3-chloro-1,1′-biphenyl-4-yl)acetic acid] has a mrna remaining at 1 µM [2, 3] of 61.2%.

With `CC(=O)N(C)c1ccc(OCc2cc3ccc(F)cc3n2C(=O)OC(C)(C)C)cc1` [Reference Example 3, tert-Butyl 2-({4-[acetyl(methyl)amino]phenoxy}methyl)-6-fluoro-1H-indole-1-carboxylate] the mrna remaining at 1 µM [2, 3] was 67.9%.

`Cc1c(CC(=O)O)cccc1-c1ccc(OCc2ccc(C(F)(F)F)c(O)c2C(=O)OC(C)(C)C)cc1` [Reference Example 16, (4′-{[2-(tert-Butoxycarbonyl)-3-hydroxy-4-(trifluoromethyl)benzyl]oxy}-2-methyl-1,1′-biphenyl-3-yl)acetic acid] was tested, and the mrna remaining at 1 µM [2, 3] was 65.4%.

Compound `COc1cc2nc(Cc3cccc(F)c3)n(-c3cc(C(O)(C(F)(F)F)C(F)(F)F)ccc3C)c(=O)c2cc1OC` [Reference Example 2, 2-(3-Fluorobenzyl)-6,7-dimethoxy-3-{2-methyl-5-[2,2,2-trifluoro-1-hydroxy-1-(trifluoromethyl)ethyl]phenyl}-4(3H)-quinazolinone] has a mrna remaining at 10 µM [2, 4] of 45.2%.

Work on `CC(C)c1ccc(COc2ccc(-c3ccc(CC(=O)O)cc3)cc2)c(C(=O)OC(C)(C)C)c1O` [Reference Example 18, (4′-{[2-(tert-Butoxycarbonyl)-3-hydroxy-4-isopropylbenzyl]oxy}-1,1′-biphenyl-4-yl)acetic acid] yielded a mrna remaining at 1 µM [2, 3] of 56.9%.

`CC(C)(C)OC(=O)c1c(COc2ccc(-c3ccc(CC(=O)O)cc3[N+](=O)[O-])cc2)ccc(C(F)(F)F)c1O` [Reference Example 22, (4′-{[2-(tert-Butoxycarbonyl)-3-hydroxy-4-(trifluoromethyl)benzyl]oxy}-2-nitro-1,1′-biphenyl-4-yl)acetic acid] showed a mrna remaining at 1 µM [2, 3] of 54%.

In the case of `CC(C)(C)OC(=O)c1c(COc2ccc(-c3ccc(C4(C(=O)O)CC4)cc3)cc2)ccc(C(F)(F)F)c1O` [Reference Example 28, 1-(4′-{[2-(tert-Butoxycarbonyl)-3-hydroxy-4-(trifluoromethyl)benzyl]oxy}-1,1′-biphenyl-4-yl)cyclopropanecarboxylic acid], the mrna remaining at 10 µM [2, 4] is reported as 41.7%.

With `CN(C(=O)C1CC1)c1ccc(OCc2ccc(C(F)(F)F)c(O)c2C(=O)OC(C)(C)C)cc1` [Reference Example 5, tert-Butyl 6-({4-[(cyclopropylcarbonyl)(methyl)amino]phenoxy}methyl)-2-hydroxy-3-(trifluoromethyl)benzoate] the mrna remaining at 1 µM [2, 3] was 64.3%.
